In US10988477B2 (Merck Patent GmbH, priority 2018, dated 2021):

Target: GCN2 kinase (Homo sapiens, UniProt Q9P2K8)
Experiment: GCN2 enzyme inhibition assay (Transcreener ADP2 fluorescence polarization)
Format: biochemical
Settings: Enzyme activity for compounds of Formula IV; Ki(app), 280 μM ATP, 25° C.
Procedure, shortened: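 Human GCN2 (4 nM) preincubated 10 min with compound (0–8 μM) and 200 μM (RS)7 peptide in Tris-HCl pH 7.5, NaCl, MgCl2, DTT. Reaction started with 280 μM ATP, run 1 h at 25 °C. ADP detected by Transcreener fluorescence polarization. IC50 and Ki(app) fitted by tight-binding algorithm.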

Sequence of GCN2 kinase (Q9P2K8 whole entry): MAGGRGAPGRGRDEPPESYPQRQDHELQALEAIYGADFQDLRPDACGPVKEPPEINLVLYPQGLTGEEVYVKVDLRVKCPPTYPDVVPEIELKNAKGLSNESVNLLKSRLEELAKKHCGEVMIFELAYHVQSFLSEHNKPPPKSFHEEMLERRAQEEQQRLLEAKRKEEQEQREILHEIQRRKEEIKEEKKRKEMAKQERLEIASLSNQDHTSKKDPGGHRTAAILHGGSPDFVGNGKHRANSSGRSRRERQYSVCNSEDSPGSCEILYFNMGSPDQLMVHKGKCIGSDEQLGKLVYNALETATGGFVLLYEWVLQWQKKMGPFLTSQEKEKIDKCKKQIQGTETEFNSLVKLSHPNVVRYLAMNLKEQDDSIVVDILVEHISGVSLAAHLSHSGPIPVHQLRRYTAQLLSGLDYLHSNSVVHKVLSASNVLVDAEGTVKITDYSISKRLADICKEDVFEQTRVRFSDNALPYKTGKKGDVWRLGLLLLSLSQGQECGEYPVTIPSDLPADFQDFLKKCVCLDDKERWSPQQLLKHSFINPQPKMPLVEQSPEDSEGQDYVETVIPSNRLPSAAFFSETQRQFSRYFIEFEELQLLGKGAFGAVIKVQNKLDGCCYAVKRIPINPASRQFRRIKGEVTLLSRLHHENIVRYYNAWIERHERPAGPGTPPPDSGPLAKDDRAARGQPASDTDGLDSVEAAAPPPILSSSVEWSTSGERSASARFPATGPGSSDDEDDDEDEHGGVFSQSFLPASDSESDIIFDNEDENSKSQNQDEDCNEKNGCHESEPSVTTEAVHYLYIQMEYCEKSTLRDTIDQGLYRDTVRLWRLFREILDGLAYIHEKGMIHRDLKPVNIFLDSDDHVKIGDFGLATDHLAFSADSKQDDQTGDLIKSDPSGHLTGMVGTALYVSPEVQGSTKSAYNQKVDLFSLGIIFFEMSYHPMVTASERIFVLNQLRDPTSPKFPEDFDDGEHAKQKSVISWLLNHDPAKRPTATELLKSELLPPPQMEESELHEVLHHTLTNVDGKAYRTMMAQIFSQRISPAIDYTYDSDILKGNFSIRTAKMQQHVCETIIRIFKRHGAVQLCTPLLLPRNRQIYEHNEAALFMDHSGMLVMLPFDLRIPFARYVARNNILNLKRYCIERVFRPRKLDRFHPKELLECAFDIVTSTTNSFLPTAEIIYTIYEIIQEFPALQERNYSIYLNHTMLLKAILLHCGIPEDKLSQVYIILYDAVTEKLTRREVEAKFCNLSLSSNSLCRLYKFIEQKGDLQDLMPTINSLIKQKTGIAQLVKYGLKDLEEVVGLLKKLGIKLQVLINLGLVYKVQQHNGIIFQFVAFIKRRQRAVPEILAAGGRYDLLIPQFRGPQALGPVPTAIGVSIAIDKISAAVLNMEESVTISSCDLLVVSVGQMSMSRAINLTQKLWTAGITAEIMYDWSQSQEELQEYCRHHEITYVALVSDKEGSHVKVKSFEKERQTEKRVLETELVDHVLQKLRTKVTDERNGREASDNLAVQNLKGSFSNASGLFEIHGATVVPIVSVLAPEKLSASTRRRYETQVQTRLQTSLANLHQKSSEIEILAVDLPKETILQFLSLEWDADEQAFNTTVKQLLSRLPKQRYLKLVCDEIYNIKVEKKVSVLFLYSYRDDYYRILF

Ki | Compound
100 to 1000 nM | N#CCCN1CCN(c2ccnc(-c3cnc4cnc(C(F)(F)F)cn34)n2)CC1 [IV-620, 3-(4-(2-(6-(Trifluoromethyl)imidazo[1,2-a]pyrazin-3-yl)pyrimidin-4-yl)piperazin-1-yl)propanenitrile]
100 to 1000 nM | CNC(=O)C1CCN(c2ccnc(-c3cnc4cnc(C(F)(F)F)cn34)n2)C1 (stereo not drawn) [IV-625, N-Methyl-1-(2-(6-(trifluoromethyl)imidazo[1,2-a]pyrazin-3-yl)pyrimidin-4-yl)pyrrolidine-3-carboxamide]
100 to 1000 nM | FC(F)(F)c1cn2c(-c3nccc(-n4ccc(C5CCCNC5)n4)n3)cnc2cn1 (stereo not drawn) [IV-634, 3-(4-(3-(Piperidin-3-yl)-1H-pyrazol-1-yl)pyrimidin-2-yl)-6-(trifluoromethyl)imidazo[1,2-a]pyrazine]
100 to 1000 nM | Cc1nc(C2CCN(c3ccnc(-c4cnc5cnc(C(F)(F)F)cn45)n3)C2)n[nH]1 (stereo not drawn) [IV-641, 3-(4-(3-(5-Methyl-1H-1,2,4-triazol-3-yl)pyrrolidin-1-yl)pyrimidin-2-yl)-6-(trifluoromethyl)imidazo[1,2-a]pyrazine]
100 to 1000 nM | FC(F)(F)c1cn2c(-c3nccc(N4CCC(c5nnc[nH]5)C4)n3)cnc2cn1 (stereo not drawn) [IV-642, 3-(4-(3-(4H-1,2,4-Triazol-3-yl)pyrrolidin-1-yl)pyrimidin-2-yl)-6-(trifluoromethyl)imidazo[1,2-a]pyrazine]
100 to 1000 nM | CC1CC(C)C(C)N(c2ccnc(-c3cnc4cnc(C(F)(F)F)cn34)n2)C1 (stereo not drawn) [IV-643, 6-(Trifluoromethyl)-3-(4-(2,3,5-trimethylpiperidin-1-yl)pyrimidin-2-yl)imidazo[1,2-a]pyrazine]
100 to 1000 nM | FC(F)(F)c1cn2c(-c3nccc(N4CCC(C5CCCC5)C4)n3)cnc2cn1 (stereo not drawn) [IV-644, 3-(4-(3-Cyclopentylpyrrolidin-1-yl)pyrimidin-2-yl)-6-(trifluoromethyl)imidazo[1,2-a]pyrazine]
100 to 1000 nM | OC1CCN(C2CCN(c3ccnc(-c4cnc5cnc(C(F)(F)F)cn45)n3)C2)CC1 (stereo not drawn) [IV-645, 1-(1-(2-(6-(Trifluoromethyl)imidazo[1,2-a]pyrazin-3-yl)pyrimidin-4-yl)pyrrolidin-3-yl)piperidin-4-ol]
10 to 100 nM | FC(F)(F)c1cn2c(-c3nccc(N4CCC(c5cccnc5)C4)n3)cnc2cn1 (stereo not drawn) [IV-646, 3-(4-(3-(Pyridin-3-yl)pyrrolidin-1-yl)pyrimidin-2-yl)-6-(trifluoromethyl)imidazo[1,2-a]pyrazine]
100 to 1000 nM | Cn1nc(C2CCN(c3ccnc(-c4cnc5cnc(C(F)(F)F)cn45)n3)C2)cc1O (stereo not drawn) [IV-647, 1-Methyl-3-(1-(2-(6-(trifluoromethyl)imidazo[1,2-a]pyrazin-3-yl)pyrimidin-4-yl)pyrrolidin-3-yl)-1H-pyrazol-5-ol]
100 to 1000 nM | FC(F)(F)c1cn2c(-c3nccc(N4CCCC(c5cc(C(F)(F)F)[nH]n5)C4)n3)cnc2cn1 (stereo not drawn) [IV-653, 6-(Trifluoromethyl)-3-(4-(3-(5-(trifluoromethyl)-1H-pyrazol-3-yl)piperidin-1-yl)pyrimidin-2-yl)imidazo[1,2-a]pyrazine]
100 to 1000 nM | Cn1cc(C(F)(F)F)nc1C1CCCN(c2ccnc(-c3cnc4cnc(C(F)(F)F)cn34)n2)C1 (stereo not drawn) [IV-654, 3-(4-(3-(1-Methyl-4-(trifluoromethyl)-1H-imidazol-2-yl)piperidin-1-yl)pyrimidin-2-yl)-6-(trifluoromethyl)imidazo[1,2-a]pyrazine]
100 to 1000 nM | Cn1nccc1C1CCCN(c2ccnc(-c3cnc4cnc(C(F)(F)F)cn34)n2)C1 (stereo not drawn) [IV-655, 3-(4-(3-(1-Methyl-1H-pyrazol-5-yl)piperidin-1-yl)pyrimidin-2-yl)-6-(trifluoromethyl)imidazo[1,2-a]pyrazine]
100 to 1000 nM | FC(F)(F)c1cn2c(-c3nccc(N4CCCC(c5nnco5)C4)n3)cnc2cn1 (stereo not drawn) [IV-656, 2-(1-(2-(6-(Trifluoromethyl)imidazo[1,2-a]pyrazin-3-yl)pyrimidin-4-yl)piperidin-3-yl)-1,3,4-oxadiazole]
100 to 1000 nM | Cc1c[nH]nc1C1CN(c2ccnc(-c3cnc4cnc(C(F)(F)F)cn34)n2)CCO1 (stereo not drawn) [IV-657, 2-(4-Methyl-1H-pyrazol-3-yl)-4-(2-(6-(trifluoromethyl)imidazo[1,2-a]pyrazin-3-yl)pyrimidin-4-yl)morpholine]
100 to 1000 nM | O=S1(=O)CCCN1C1CCCN(c2ccnc(-c3cnc4cnc(C(F)(F)F)cn34)n2)C1 (stereo not drawn) [IV-658, 2-(1-(2-(6-(Trifluoromethyl)imidazo[1,2-a]pyrazin-3-yl)pyrimidin-4-yl)piperidin-3-yl)isothiazolidine 1,1-dioxide]
100 to 1000 nM | FC(F)(F)c1cn2c(-c3nccc(N4CCCC(c5n[nH]c(C6CCCCC6)n5)C4)n3)cnc2cn1 (stereo not drawn) [IV-659, 3-(4-(3-(5-Cyclohexyl-1H-1,2,4-triazol-3-yl)piperidin-1-yl)pyrimidin-2-yl)-6-(trifluoromethyl)imidazo[1,2-a]pyrazine]
100 to 1000 nM | O=c1nc(C2CCCN(c3ccnc(-c4cnc5cnc(C(F)(F)F)cn45)n3)C2)[nH][nH]1 (stereo not drawn) [IV-660, 5-(1-(2-(6-(Trifluoromethyl)imidazo[1,2-a]pyrazin-3-yl)pyrimidin-4-yl)piperidin-3-yl)-1,2-dihydro-3H-1,2,4-triazol-3-one]
100 to 1000 nM | Cc1nc(C2CN(c3ccnc(-c4cnc5cnc(C(F)(F)F)cn45)n3)CCO2)n[nH]1 (stereo not drawn) [IV-661, 2-(5-Methyl-1H-1,2,4-triazol-3-yl)-4-(2-(6-(trifluoromethyl)imidazo[1,2-a]pyrazin-3-yl)pyrimidin-4-yl)morpholine]
100 to 1000 nM | Cn1nc(C2CCCN(c3ccnc(-c4cnc5cnc(C(F)(F)F)cn45)n3)C2)cc1CCO (stereo not drawn) [IV-662, 2-(1-Methyl-3-(1-(2-(6-(trifluoromethyl)imidazo[1,2-a]pyrazin-3-yl)pyrimidin-4-yl)piperidin-3-yl)-1H-pyrazol-5-yl)ethan-1-ol]

Ki | Compound
100 to 1000 nM | O=C1CC(C2CCCN(c3ccnc(-c4cnc5cnc(C(F)(F)F)cn45)n3)C2)CN1 (stereo not drawn) [IV-663, 4-(1-(2-(6-(Trifluoromethyl)imidazo[1,2-a]pyrazin-3-yl)pyrimidin-4-yl)piperidin-3-yl)pyrrolidin-2-one]
100 to 1000 nM | FC(F)(F)c1cn2c(-c3nccc(N4CCCC(n5ccc(C(F)(F)F)n5)C4)n3)cnc2cn1 (stereo not drawn) [IV-664, 6-(Trifluoromethyl)-3-(4-(3-(3-(trifluoromethyl)-1H-pyrazol-1-yl)piperidin-1-yl)pyrimidin-2-yl)imidazo[1,2-a]pyrazine]
100 to 1000 nM | FC(F)(F)c1cn2c(-c3nccc(N4CCCC(n5cccn5)C4)n3)cnc2cn1 (stereo not drawn) [IV-665, 3-(4-(3-(1H-Pyrazol-1-yl)piperidin-1-yl)pyrimidin-2-yl)-6-(trifluoromethyl)imidazo[1,2-a]pyrazine]
10 to 100 nM | CC1CN(c2ccnc(-c3cnc4cnc(C(F)(F)F)cn34)n2)C(C)C(c2c[nH]c(C(F)(F)F)n2)N1 (stereo not drawn) [IV-666, 3-(4-(2,5-Dimethyl-3-(2-(trifluoromethyl)-1H-imidazol-4-yl)piperazin-1-yl)pyrimidin-2-yl)-6-(trifluoromethyl)imidazo[1,2-a]pyrazine]
100 to 1000 nM | FC(F)(F)c1cn2c(-c3nccc(N4CCCC(c5nncs5)C4)n3)cnc2cn1 (stereo not drawn) [IV-671, 2-(1-(2-(6-(Trifluoromethyl)imidazo[1,2-a]pyrazin-3-yl)pyrimidin-4-yl)piperidin-3-yl)-1,3,4-thiadiazole]
10 to 100 nM | FC(F)(F)c1cn2c(-c3nccc(N4CC(CN5CCC5)CC(c5cn[nH]c5)C4)n3)cnc2cn1 (stereo not drawn) [IV-681, 3-(4-(3-(Azetidin-1-ylmethyl)-5-(1H-pyrazol-4-yl)piperidin-1-yl)pyrimidin-2-yl)-6-(trifluoromethyl)imidazo[1,2-a]pyrazine]
100 to 1000 nM | CC1C(c2cn[nH]c2)CC(P(C)(C)=O)CN1c1ccnc(-c2cnc3cnc(C(F)(F)F)cn23)n1 (stereo not drawn) [IV-697, Dimethyl(6-methyl-5-(1H-pyrazol-4-yl)-1-(2-(6-(trifluoromethyl)imidazo[1,2-a]pyrazin-3-yl)pyrimidin-4-yl)piperidin-3-yl)phosphine oxide]
100 to 1000 nM | CS(=O)(=O)N1CCC2(CC1)CN(c1ccnc(-c3cnc4cnc(C(F)(F)F)cn34)n1)C2 [IV-698, 3-(4-(7-(Methylsulfonyl)-2,7-diazaspiro[3.5]nonan-2-yl)pyrimidin-2-yl)-6-(trifluoromethyl)imidazo[1,2-a]pyrazine]
100 to 1000 nM | CC(=O)N1CCN(c2ccnc(-c3cnc4cnc(C(N)=O)cn34)n2)CC1(C)C [IV-699, 3-(4-(4-Acetyl-3,3-dimethylpiperazin-1-yl)pyrimidin-2-yl)imidazo[1,2-a]pyrazine-6-carboxamide]
100 to 1000 nM | CC(=O)N1CCN(c2ccc(C(F)(F)F)c(-c3cnc4cnc(C(N)=O)cn34)n2)CC1 [IV-700, 3-(6-(4-acetylpiperazin-1-yl)-3-(trifluoromethyl)pyridin-2-yl)imidazo[1,2-a]pyrazine-6-carboxamide]
100 to 1000 nM | COc1cnc(N2CCN(C(C)=O)CC2)nc1-c1cnc2cnc(C(N)=O)cn12 [IV-701, 3-(2-(4-acetylpiperazin-1-yl)-5-methoxypyrimidin-4-yl)imidazo[1,2-a]pyrazine-6-carboxamide]
< 10 nM | FC(F)(F)c1cn2c(-c3nccc(N4CCC[C@@H](c5c[nH]cn5)C4)n3)cnc2cn1 [IV-706]
10 to 100 nM | FC(F)(F)c1cn2c(-c3nccc(N4CCC[C@H](c5c[nH]cn5)C4)n3)cnc2cn1 [IV-707]
10 to 100 nM | FC(F)(F)c1cn2c(-c3nccc(N4CCCC(c5ncc[nH]5)C4)n3)cnc2cn1 (stereo not drawn) [IV-708]
100 to 1000 nM | O=C(N[C@@H]1CCCN(c2ccnc(-c3cnc4cnc(C(F)(F)F)cn34)n2)C1)c1cn[nH]c1 [IV-709]
100 to 1000 nM | NS(=O)(=O)c1ccc(C(=O)N[C@@H]2CCCN(c3ccnc(-c4cnc5cnc(C(F)(F)F)cn45)n3)C2)o1 [IV-710]
100 to 1000 nM | FC(F)(F)c1cn2c(-c3nccc(N4CCOC(c5cccnc5)C4)n3)cnc2cn1 (stereo not drawn) [IV-711]
100 to 1000 nM | FC(F)(F)c1cn2c(-c3nccc(N4CCO[C@H](c5ccccn5)C4)n3)cnc2cn1 [IV-713]
100 to 1000 nM | Cc1csc2c1CN(c1ccnc(-c3cnc4cnc(C(F)(F)F)cn34)n1)CC2 [IV-714]
